# How the values were obtained:
# Format in all cases: biochemical
# [1] = biological target: T1, Aβ42 (amyloid-β; Aβ) (Homo sapiens, UniProt P05067); experiment: thioflavin-T fluorescence, aggregation inhibition; conditions: read-out: IC50 (Aβ/hIAPP, μM) ^a
# T1 construct: gene APP; Abeta42 peptide of 42 residues (672-713 of APP, recalled); cut from amyloid precursor protein; aggregating peptide, monomer to fibril
# Excerpt: thioflavin-T fluorescence, aggregation inhibition on Aβ42 (amyloid-β; Aβ)
# [2] = biological target: T2, hIAPP (human islet amyloid polypeptide) (Homo sapiens, UniProt P10997); experiment: thioflavin-T fluorescence, aggregation inhibition; conditions: read-out: IC50 (Aβ/hIAPP, μM) ^a
# T2 construct: gene IAPP; mature peptide of 37 residues (34-70 of the precursor, recalled), bought from KareBay Biochem; aggregating peptide, monomer to fibril
# T2 sequence (P10997 34-70): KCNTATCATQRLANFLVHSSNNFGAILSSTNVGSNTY
# Excerpt: thioflavin-T fluorescence, aggregation inhibition on hIAPP (human islet amyloid polypeptide)
# [3] = biological target: T2, hIAPP (human islet amyloid polypeptide); experiment: thioflavin-T fluorescence, disaggregation of preformed aggregates; conditions: read-out: EC50 (Aβ/hIAPP, μM) ^a
# Excerpt: thioflavin-T fluorescence, disaggregation of preformed aggregates on hIAPP (human islet amyloid polypeptide)
# [4] = biological target: T1, Aβ42 (amyloid-β; Aβ); experiment: as above; conditions: read-out: EC50 (Aβ/hIAPP, μM) ^a
# Excerpt: thioflavin-T fluorescence, disaggregation of preformed aggregates on Aβ42 (amyloid-β; Aβ)
# T1 sequence (P05067 672-713): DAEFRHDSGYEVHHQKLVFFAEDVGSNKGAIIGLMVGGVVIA
Compound,IC50 [1] [µM],IC50 [2] [µM],EC50 [3] [µM],EC50 [4] [µM]
"O=C(O[C@@H]1Cc2c(O)cc(O)cc2O[C@@H]1c1cc(O)c(O)c(O)c1)c1cc(O)c(O)c(O)c1 [EGCG, reference compound]",3.8,1.1,3.7,5
"Oc1cc(O)c2c(c1)O[C@@]1(c3ccc(O)c(O)c3)Oc3cc(O)c4c(c3[C@@H]2[C@H]1O)O[C@H](c1ccc(O)c(O)c1)[C@H](O)C4 [compound 1, procyanidin A2]",4.8,8.4,5.4,3.3
"Oc1cc(O)c2c(c1)O[C@@]1(c3ccc(O)c(O)c3)Oc3cc4c(c(O)c3[C@@H]2[C@H]1O)C[C@@H](O)[C@@H](c1ccc(O)c(O)c1)O4 [compound 3, proanthocyanidin A6]",4.2,16.4,4.9,23
"Oc1cc(O)c2c(c1)O[C@@]1(c3ccc(O)c(O)c3)Oc3cc4c(c(O)c3[C@@H]2[C@H]1O)C[C@H](O)[C@@H](c1ccc(O)c(O)c1)O4 [compound 4, 4]",5.7,16.8,–,–
"Oc1cc(O)c2c(c1)O[C@@]1(c3ccc(O)c(O)c3)Oc3c4c(cc(O)c3[C@@H]2[C@H]1O)O[C@H](c1ccc(O)c(O)c1)[C@H](O)C4 [compound 5, proanthocyanidin A7]",2.4,13.4,15.8,8.9
"Oc1cc(O)c2c(c1)O[C@@]1(c3ccc(O)c(O)c3)Oc3c4c(cc(O)c3[C@@H]2[C@H]1O)O[C@H](c1ccc(O)c(O)c1)[C@@H](O)C4 [compound 6, 6]",6.8,11.6,–,–
"COc1cc(OC)c2c(c1)O[C@@]1(c3ccc(OC)c(OC)c3)Oc3cc(OC)c4c(c3[C@@H]2[C@H]1O)O[C@H](c1ccc(OC)c(OC)c1)[C@H](O)C4 [compound 7, 7]",> 100,> 100,> 100,> 100
"Oc1cc(O)c2c(c1)O[C@H](c1ccc(O)c(O)c1)[C@H](O)C2 [compound 8, (−)-epicatechin]",41.7,38.9,12.2,12.9
"Oc1cc(O)c2c(c1)O[C@H](c1ccc(O)c(O)c1)[C@@H](O)C2 [compound 9, (+)-catechin]",56.8,40.9,–,–

# From publication PMC8623168, “Evaluation of Amyloid Polypeptide Aggregation Inhibition and Disaggregation Activity of A-Type Procyanidins” (Pharmaceuticals, 2021)
